In paper PMC10482691, “LTP induction by structural rather than enzymatic functions of CaMKII” (Nature, 2023):
Values joined by “and” are separate entries in the source; they are usually repeats but may differ in a detail not shown here. Equal values may be shown once.

Experiments:
[1] = tested on: CA3–CA1 Schaffer collateral pathway LTP; experiment: LTP at CA3–CA1 synapse, field recordings in acute hippocampal slices of WT mice; format: cell-based, mouse; settings: for LTP quantification (fEPSP slope, last 10 min post-HFS, normalized to baseline): 15 min before HFS to 5 min after
[2] = molecular target: T1, GFP–CaMKII F89G / mCh-GluN2B-c tail in HEK293 cells (Homo sapiens, UniProt Q9UQM7, F89G); experiment: Ionomycin-induced colocalization of GFP–CaMKII F89G and mCherry-2BC in HEK293 cells; format: cell-based; settings: 10 µM NM-PP1
T1 construct: expressed in transfected cells; host or cells: HEK293

[3] = tested on: CA1 LTP in CaMKIIα KO slices (mock); experiment: LTP field recordings in slices of CaMKIIα KO mice injected with AAV-mScarlet (mock); format: cell-based, mouse; settings: for fEPSP slope (normalized to baseline): individual slices, sheet 5b
Experimental: Stereotactic injections were performed on P24 CaMKIIα KO mice. Animals were anesthetized with an intraperitoneal injection of 2,2,2-Tribromoethanol (250 mg kg^−1) and then head fixed to a stereotactic frame (David Kopf Instruments). AAVs (0.2–0.5 µl) were injected into intermediate CA1 at a rate of […] using a syringe pump (World Precision Instruments). Coordinates (in millimetres) were anterior–posterior: −3.17; mediolateral: ±3.45 (relative to Bregma); and dorsoventral: −2.5 (relative to pia). To confirm specificity of the injection site following LTP recordings, slices were fixed in 4% paraformaldehyde; then, they were coverslipped and imaged on an Olympus slide scanning microscope.
WT and mutant mouse hippocampal slices were prepared using P56–P70 mice. Isoflurane-anesthetized mice were rapidly decapitated, and the brain was dissected in an ice-cold high-sucrose solution containing 220 mM sucrose, 12 mM MgSO4, 10 mM glucose, 0.2 mM CaCl2, 0.5 mM KCl, 0.65 mM NaH2PO4, 13 mM NaHCO3 and 1.8 mM ascorbate. Transverse hippocampal slices (400 μm) were made using a tissue chopper (McIlwain) and transferred into 32 °C ACSF containing 124 mM NaCl, 3.5 mM KCl, 1.3 mM NaH2PO4, 26 mM NaHCO3, 10 mM glucose, 2 mM CaCl2, 1 mM MgSO4 and 1.8 mM ascorbate. All slices were recovered in 95% O2/5% CO2 for at least 1.5 h before experimentation.
For electrophysiological slice recording experiments, a glass micropipette (typical resistance of 0.4–0.8 megaohm when filled with ACSF) was used to record fEPSPs from the CA1 dendritic layer in response to stimulation of the Schaffer collaterals using a tungsten bipolar electrode. Slices were continually perfused with 30.5 °C ± 0.5 °C ACSF at a rate of 2.5 ± 0.5 ml min^−1 during recordings. Stimuli were delivered every 20 s, and three responses (1 min) were averaged for analysis. Data were analysed using WinLTP software with slope calculated as the initial rise from 10 to 60% of the response peak. Input–output curves were generated by increasing the stimulus intensity at a constant interval until a maximum response or population spike was noted to determine stimulation that elicits 50% of maximum slope. […] A stable baseline was acquired for a minimum of 20 min at 50% maximum slope before high-frequency stimulation (HFS; 2 × 100 Hz, 10 s interval) was applied. Responses were recorded for 40 or 60 min after HFS. Change in slope was calculated as a ratio of the average slope of the 20 min baseline (before HFS). Bar graphs of the percentage of fEPSP slope were calculated by averaging the last 10 min time points post-HFS and normalized to baseline.

T1 sequence (Q13224 836-1484 S1303A): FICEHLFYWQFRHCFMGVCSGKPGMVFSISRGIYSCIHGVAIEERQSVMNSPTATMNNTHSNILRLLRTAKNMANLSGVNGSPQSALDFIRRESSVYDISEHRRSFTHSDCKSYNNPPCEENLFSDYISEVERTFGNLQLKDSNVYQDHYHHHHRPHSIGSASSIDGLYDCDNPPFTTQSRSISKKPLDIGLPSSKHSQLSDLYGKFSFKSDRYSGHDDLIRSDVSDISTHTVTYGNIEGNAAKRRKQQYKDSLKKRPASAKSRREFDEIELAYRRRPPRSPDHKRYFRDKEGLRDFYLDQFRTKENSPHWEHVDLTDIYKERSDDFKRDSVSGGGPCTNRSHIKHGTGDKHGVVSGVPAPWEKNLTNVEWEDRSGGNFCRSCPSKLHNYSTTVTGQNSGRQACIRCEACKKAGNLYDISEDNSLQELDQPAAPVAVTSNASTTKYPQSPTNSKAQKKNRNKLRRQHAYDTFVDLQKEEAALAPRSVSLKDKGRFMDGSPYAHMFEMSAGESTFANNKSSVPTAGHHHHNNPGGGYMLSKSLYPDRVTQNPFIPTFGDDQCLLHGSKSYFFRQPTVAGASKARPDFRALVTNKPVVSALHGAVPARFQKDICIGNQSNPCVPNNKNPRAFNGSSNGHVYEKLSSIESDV
T1 sequence (Q9UQM7 whole entry F89G): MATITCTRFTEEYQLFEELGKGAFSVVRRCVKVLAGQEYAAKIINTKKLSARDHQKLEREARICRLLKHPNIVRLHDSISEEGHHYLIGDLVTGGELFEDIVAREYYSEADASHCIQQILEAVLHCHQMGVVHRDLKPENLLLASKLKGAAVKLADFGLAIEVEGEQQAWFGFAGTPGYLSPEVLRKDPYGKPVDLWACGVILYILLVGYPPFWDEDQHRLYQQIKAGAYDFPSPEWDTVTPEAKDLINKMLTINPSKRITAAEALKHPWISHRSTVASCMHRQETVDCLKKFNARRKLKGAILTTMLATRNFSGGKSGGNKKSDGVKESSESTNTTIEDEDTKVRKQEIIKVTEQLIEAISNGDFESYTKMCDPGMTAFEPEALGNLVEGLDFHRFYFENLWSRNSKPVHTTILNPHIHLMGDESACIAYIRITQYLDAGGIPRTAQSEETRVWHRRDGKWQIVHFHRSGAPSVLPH

NCCNc1cccc(-c2ccnc3[nH]c4ccccc4c23)c1 [AS283]
LTP quantification (fEPSP slope, last 10 min post-HFS, normalized to baseline) ([1]; AS283 10uM): 152.979% and 135.393% and 153.277% | fEPSP slope (normalized to baseline) ([1]; AS283 10uM, Time (min) -4): 104.452% and 102.587% and 97.9392% | fEPSP slope (normalized to baseline) ([1]; AS283 10uM, Time (min) -5): 97.455% and 97.2289% and 102.244% | fEPSP slope (normalized to baseline) ([1]; AS283 10uM, Time (min) -6): 99.4541% and 99.1179% and 105.524% | fEPSP slope (normalized to baseline) ([1]; AS283 10uM, Time (min) -7): 101.753% and 102.819% and 102.999% | fEPSP slope (normalized to baseline) ([1]; AS283 10uM, Time (min) -8): 95.5559% and 104.449% and 104.231% | fEPSP slope (normalized to baseline) ([1]; AS283 10uM, Time (min) -9): 92.9571% and 97.0204% and 97.7789% | fEPSP slope (normalized to baseline) ([1]; AS283 10uM, Time (min) -10): 99.8539% and 98.6506% and 100.547% | fEPSP slope (normalized to baseline) ([1]; AS283 10uM, Time (min) -11): 103.952% and 101.834% and 101.778% | fEPSP slope (normalized to baseline) ([1]; AS283 10uM, Time (min) -12): 101.553% and 101.652% and 98.229% | fEPSP slope (normalized to baseline) ([1]; AS283 10uM, Time (min) -13): 102.353% and 99.9177% and 99.6311% | LTP quantification (fEPSP slope, last 10 min post-HFS, normalized to baseline) ([1]; AS283 30uM): 160.389% and 108.532% and 181.434% and 162.892% and 172.846% and 114.329% and 178.329% | fEPSP slope (normalized to baseline) ([1]; AS283 30uM, Time (min) -4): 104.315% and 98.2615% and 101.701% and 97.3586% and 99.2226% and 91.7266% and 101.169% | fEPSP slope (normalized to baseline) ([1]; AS283 30uM, Time (min) -5): 101.784% and 110.1% and 99.6307% and 92.306% and 111.307% and 95.4361% and 105.648% | fEPSP slope (normalized to baseline) ([1]; AS283 30uM, Time (min) -6): 100.097% and 110.1% and 101.96% and 97.1642% and 103.039% and 95.0989% and 110.591% | fEPSP slope (normalized to baseline) ([1]; AS283 30uM, Time (min) -7): 104.877% and 108.522% and 113.432% and 111.35% and 97.9505% and 103.53% and 108.737% | fEPSP slope (normalized to baseline) ([1]; AS283 30uM, Time (min) -8): 104.034% and 98.6561% and 118.004% and 96.7756% and 91.5901% and 101.506% and 110.436% | fEPSP slope (normalized to baseline) ([1]; AS283 30uM, Time (min) -9): 106.283% and 106.154% and 107.653% and 91.3344% and 103.039% and 101.844% and 106.575% | fEPSP slope (normalized to baseline) ([1]; AS283 30uM, Time (min) -10): 103.19% and 102.997% and 101.442% and 97.5529% and 105.583% and 95.4361% and 107.965% | fEPSP slope (normalized to baseline) ([1]; AS283 30uM, Time (min) -11): 100.66% and 97.0777% and 100.58% and 104.937% and 103.675% and 93.0755% and 112.753% | fEPSP slope (normalized to baseline) ([1]; AS283 30uM, Time (min) -12): 100.379% and 102.602% and 99.6307% and 99.8848% and 96.6784% and 98.4712% and 119.858% | fEPSP slope (normalized to baseline) ([1]; AS283 30uM, Time (min) -13): 101.784% and 99.0508% and 93.2474% and 96.5813% and 96.6784% and 98.8084% and 114.606% | effect on LTP induction in WT mice ([1]; AS283 10 or 30 µM): failed to block

CC(C)(C)n1nc(Cc2cccc3ccccc23)c2c(N)ncnc21 [NM-PP1]
effect on binding of CaMKII F89G to GluN2B in HEK cells [2]: fully enabled binding | synaptic response 60 min following LTP induction (fEPSP slope normalized to baseline) ([3]; AAV-mScarlet (mock), 10 μM NM-PP1): 102.757% and 115.997% and 130.031% and 114.245% and 91.515% and 129.007% | effect on residual LTP in control slices ([3]; NM-PP1): no effect | fEPSP slope (normalized to baseline) ([3]; Time (min) 0): 101.067 and 113.338 and 103.234 and 95.8969 and 93.1952 and 132.987 | fEPSP slope (normalized to baseline) ([3]; Time (min) 2.33333): 249.911 and 143.318 and 169.121 and 175.176 and 145.841 and 156.755 | fEPSP slope (normalized to baseline) ([3]; Time (min) 4.33333): 204.384 and 151.727 and 165.598 and 165.31 and 135.76 and 108.68 | fEPSP slope (normalized to baseline) ([3]; Time (min) 6.33333): 189.169 and 150.265 and 135.884 and 160.117 and 120.975 and 129.276 | fEPSP slope (normalized to baseline) ([3]; Time (min) 8.33333): 181.94 and 147.249 and 128.602 and 144.365 and 120.078 and 132.395 | fEPSP slope (normalized to baseline) ([3]; Time (min) 10.3333): 172.351 and 139.799 and 136.941 and 133.459 and 110.893 and 130.889 | fEPSP slope (normalized to baseline) ([3]; Time (min) 12.3333): 161.674 and 137.88 and 134.122 and 129.997 and 100.812 and 137.611 | fEPSP slope (normalized to baseline) ([3]; Time (min) 14.3333): 174.774 and 134.406 and 129.19 and 125.67 and 98.5718 and 121.048 | fEPSP slope (normalized to baseline) ([3]; Time (min) 16.3333): 159.559 and 133.63 and 131.891 and 126.189 and 89.1627 and 135.622 | fEPSP slope (normalized to baseline) ([3]; Time (min) 18.3333): 153.964 and 134.681 and 128.015 and 124.631 and 95.4355 and 108.465 | fEPSP slope (normalized to baseline) ([3]; Time (min) 20.3333): 149.095 and 132.944 and 120.851 and 126.189 and 102.828 and 98.3552 | fEPSP slope (normalized to baseline) ([3]; Time (min) 22.3333): 149.671 and 128.922 and 119.442 and 125.843 and 91.627 and 123.092 | fEPSP slope (normalized to baseline) ([3]; Time (min) 24.3333): 144.438 and 125.952 and 116.623 and 124.631 and 90.9549 and 132.503 | fEPSP slope (normalized to baseline) ([3]; Time (min) 26.3333): 142.473 and 123.484 and 117.21 and 125.843 | fEPSP slope (normalized to baseline) ([3]; Time (min) -2): 96.4978 and 115.989 and 102.999 and 98.6665 and 100.14 and 126.48 | fEPSP slope (normalized to baseline) ([3]; Time (min) -4): 101.912 and 117.543 and 106.993 and 100.051 and 103.5 and 95.9353 | fEPSP slope (normalized to baseline) ([3]; Time (min) -6): 102.969 and 117.634 and 102.06 and 101.09 and 99.2439 and 110.347
